In US20200230074A1, “NICOTINE-CONTAINING TRANSPARENT TRANSDERMAL THERAPEUTIC SYSTEM” (LTS Lohmann Theraple-Systeme AG, priority 2017, published 2020):

Experiments:
[1] = Analysis of nicotine degradation products in stored samples; type: physicochemical; conditions: conclusion from degradation products
Description: In order to check which decomposition products of nicotine cause the brown colour, sample Nic 0007 was analysed.

[2] = Storage of nicotine Eudragit E 100 solutions with antioxidants, visual colour (Pantone Colour Code); type: physicochemical; conditions: stored in the dark 4 weeks at 60° C. or 80° C.
From the text: Since polyisobutylenes contain terminal double bonds and therefore have to be stabilised by the antioxidant butyl hydroxytoluene, it was examined whether the avoidance of nicotine discolouration can be achieved by antioxidants. Pharmaceutically acceptable antioxidants were therefore added to nicotine in graded-concentrations in 2 test series to form solutions of Eudragit E 100 (cationic copolymer based on dimethylaminoethyl methacrylate, butyl methacrylate and methyl methacrylate in a ratio of 2:1:1). These solutions were stored in the dark for 4 weeks at 60° C. or 80° C.
Butyl hydroxytoluene (BHT), ascorbyl palmitate and tocopherol were tested as antioxidants.
The samples were examined visually after storage, and the relevant Pantone Colour Code for the colour of the sample was determined. The Pantone Colour Code is an internationally used colour system developed by the company Pantone LLC, USA. As a result it is possible to determine that the antioxidants were unable to suppress the discolouration of the nicotine.

CCCCCCCCCCCCCCCC(=O)OC[C@H](O)[C@H]1OC(=O)C(O)=C1O [ascorbyl palmitate]
decomposition of nicotine [1]: does prevent its decomposition | suppression of the discolouration of nicotine [2]: does not prevent the brown colouration of nicotine
